The first test concerns the target T1, α-7 nicotinic acetylcholine receptor channel expressed in HEK 293 cells (Rattus norvegicus, UniProt Q05941).
T1 construct: expressed in transfected cells
Nature of the test: Ca2+-sensitive fluorescence-based FLIPR assay, α7 nicotinic ACh receptor channel function (agonist). The format is cell-based.
Settings: not given
In outline:
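Potency and efficacy derived from kinetic FLIPR Ca²⁺-flux fluorescence, recorded 3 min after compound addition in Hanks buffer following a 10 s baseline.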
T1 sequence (Q05941 23-502): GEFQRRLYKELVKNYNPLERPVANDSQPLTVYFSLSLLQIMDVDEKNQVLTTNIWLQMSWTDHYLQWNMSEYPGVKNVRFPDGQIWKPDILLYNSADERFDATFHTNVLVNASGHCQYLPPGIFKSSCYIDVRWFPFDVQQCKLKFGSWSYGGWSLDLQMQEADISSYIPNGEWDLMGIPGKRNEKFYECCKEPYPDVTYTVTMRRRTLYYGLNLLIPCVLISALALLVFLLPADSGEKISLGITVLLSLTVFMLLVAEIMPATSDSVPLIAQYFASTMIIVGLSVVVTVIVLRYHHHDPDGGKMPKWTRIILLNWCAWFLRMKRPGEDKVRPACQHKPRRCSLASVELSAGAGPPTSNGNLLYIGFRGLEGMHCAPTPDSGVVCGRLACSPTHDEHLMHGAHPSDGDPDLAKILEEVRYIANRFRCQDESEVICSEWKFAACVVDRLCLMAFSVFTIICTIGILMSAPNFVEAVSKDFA
`COc1cc2cnc(NC3=NC[C@@]4(CN5CCC4CC5)O3)cc2cc1OC` [Example 342, (R)—N-(6,7-dimethoxyisoquinolin-3-yl)-4H-1′-azaspiro[oxazole-5,3′-bicyclo[2.2.2]octan]-2-amine]: the response was half-maximal at 1600 nM (EC50).

Staying with this test, now noted: FLIPR α7 (EC50, nM), Table Ib; HEK 293 cells, agonist Ca2+ flux.
For `COc1cnc(NC2=NC[C@@]3(CN4CCC3CC4)O2)nc1Cl` [Example 317, (R)—N-(4-Chloro-5-methoxypyrimidin-2-yl)-4H-1′-azaspiro[oxazole-5,3′-bicyclo[2.2.2]octan]-2-amine], the response was half-maximal at 660 nM (EC50).
In the case of `Cc1nc(NC2=NC[C@@]3(CN4CCC3CC4)O2)cc2cc(F)ccc12` [Example 325, (R)—N-(6-Fluoro-1-methylisoquinolin-3-yl)-4H-1′-azaspiro[oxazole-5,3′-bicyclo[2.2.2]octan]-2-amine], the EC50 (usually the concentration that produces a half-maximal response) worked out at 139 nM.
`Cc1cc2cnc(NC3=NC[C@@]4(CN5CCC4CC5)O3)cc2cc1C` [Example 335, (2R)—N-(6,7-Dimethyl-3-isoquinolinyl)-4′H-spiro[4-azabicyclo[2.2.2]octane-2,5′-[1,3]oxazol]-2′-amine] registered an EC50 of 104 nM.
`Fc1ccc(Br)c2cnc(NC3=NC[C@@]4(CN5CCC4CC5)O3)cc12` [Example 346, (R)—N-(8-Bromo-5-fluoroisoquinolin-3-yl)-4H-1′-azaspiro[oxazole-5,3′-bicyclo[2.2.2]octan]-2-amine] gave a concentration for a half-maximal effect (EC50) of 310 nM.

The test is the same for the next values; noted with them: FLIPR α7 activity rating (EC50, nM), Table Ib; HEK 293 cells, agonist Ca2+ flux.
As to `Fc1cccc(-c2cc(NC3=NC[C@@]4(CN5CCC4CC5)O3)ncn2)c1` [Example 315, (R)—N-(6-(3-Fluorophenyl)pyrimidin-4-yl)-4H-1′-azaspiro[oxazole-5,3′-bicyclo[2.2.2]octan]-2-amine], the 50% effective concentration (EC50) was less than 100 nM.
In turn, `Fc1cnc(NC2=NC[C@@]3(CN4CCC3CC4)O2)nc1` [Example 316, (R)—N-(5-Fluoropyrimidin-2-yl)-4H-1′-azaspiro[oxazole-5,3′-bicyclo[2.2.2]octan]-2-amine] yielded an EC50 of less than 100 nM.
The compound `COc1cnc(NC2=NC[C@@]3(CN4CCC3CC4)O2)nc1Cl` [Example 317, (R)—N-(4-Chloro-5-methoxypyrimidin-2-yl)-4H-1′-azaspiro[oxazole-5,3′-bicyclo[2.2.2]octan]-2-amine] had an EC50 of 100 to 1000 nM.
Turning to `Fc1cc(F)c2cnc(NC3=NC[C@@]4(CN5CCC4CC5)O3)cc2c1` [Example 318, (R)—N-(6,8-Difluoroisoquinolin-3-yl)-4H-1′-azaspiro[oxazole-5,3′-bicyclo[2.2.2]octan]-2-amine], the EC50 was less than 100 nM.
The compound `Fc1cc2cnc(NC3=NC[C@@]4(CN5CCC4CC5)O3)cc2cc1F` [Example 319, (R)—N-(6,7-Difluoroisoquinolin-3-yl)-4H-1′-azaspiro[oxazole-5,3′-bicyclo[2.2.2]octan]-2-amine] registered a 50% effective concentration (EC50) of less than 100 nM.
Take `Fc1ccc(F)c2cc(NC3=NC[C@@]4(CN5CCC4CC5)O3)ncc12` [Example 320, (R)—N-(5,8-Difluoroisoquinolin-3-yl)-4H-1′-azaspiro[oxazole-5,3′-bicyclo[2.2.2]octan]-2-amine]: the concentration giving a half-maximal response (EC50) was less than 100 nM.
Still for that read-out and setting: as for `Fc1ccc2cnc(NC3=NC[C@@]4(CN5CCC4CC5)O3)nc2c1` [Example 321, (R)—N-(7-Fluoroquinazolin-2-yl)-4H-1′-azaspiro[oxazole-5,3′-bicyclo[2.2.2]octan]-2-amine], the figure is less than 100 nM; as for `Clc1cccc2nc(NC3=NC[C@@]4(CN5CCC4CC5)O3)ncc12` [Example 322, (R)—N-(5-Chloroquinazolin-2-yl)-4H-1′-azaspiro[oxazole-5,3′-bicyclo[2.2.2]octan]-2-amine], less than 100 nM.
With `Fc1cccc2nc(NC3=NC[C@@]4(CN5CCC4CC5)O3)ncc12` [Example 323, (R)—N-(5-Fluoroquinazolin-2-yl)-4H-1′-azaspiro[oxazole-5,3′-bicyclo[2.2.2]octan]-2-amine], the 50% effective concentration (EC50) was less than 100 nM.
Turning to `Cc1nc(NC2=NC[C@@]3(CN4CCC3CC4)O2)nc2cc(F)ccc12` [Example 324, (R)—N-(7-Fluoro-4-methylquinazolin-2-yl)-4H-1′-azaspiro[oxazole-5,3′-bicyclo[2.2.2]octan]-2-amine], the half-maximal effective concentration (EC50) is less than 100 nM.
The compound `Cc1nc(NC2=NC[C@@]3(CN4CCC3CC4)O2)cc2cc(F)ccc12` [Example 325, (R)—N-(6-Fluoro-1-methylisoquinolin-3-yl)-4H-1′-azaspiro[oxazole-5,3′-bicyclo[2.2.2]octan]-2-amine] displayed a 50% effective concentration (EC50) of 100 to 1000 nM.
Same read-out and setting: the figure for `Cc1nc(NC2=NC[C@@]3(CN4CCC3CC4)O2)cc2cc(Cl)ccc12` [Example 326, (R)—N-(6-Chloro-1-methylisoquinolin-3-yl)-4H-1′-azaspiro[oxazole-5,3′-bicyclo[2.2.2]octan]-2-amine] is 100 to 1000 nM; for `Cc1nc(NC2=NC[C@@]3(CN4CCC3CC4)O2)cc2ccc(F)cc12` [Example 327, (R)—N-(7-Fluoro-1-methylisoquinolin-3-yl)-4H-1′-azaspiro[oxazole-5,3′-bicyclo[2.2.2]octan]-2-amine] it is 100 to 1000 nM.
Still for that read-out and setting: as for `Cc1nc(NC2=NC[C@@]3(CN4CCC3CC4)O2)cc2c(F)cc(F)cc12` [Example 328, (R)—N-(5,7-Difluoro-1-methylisoquinolin-3-yl)-4H-1′-azaspiro[oxazole-5,3′-bicyclo[2.2.2]octan]-2-amine], the figure is 100 to 1000 nM.
`CSc1ccc(-c2cc(NC3=NC[C@@]4(CN5CCC4CC5)O3)ncn2)cn1` [Example 329, (R)—N-(6-(6-(Methylthio)pyridin-3-yl)pyrimidin-4-yl)-4H-1′-azaspiro[oxazole-5,3′-bicyclo[2.2.2]octan]-2-amine]: the half-maximal effective concentration (EC50) is less than 100 nM.
`Fc1ncccc1-c1cc(NC2=NC[C@@]3(CN4CCC3CC4)O2)ncn1` [Example 330, (R)—N-(6-(2-Fluoropyridin-3-yl)pyrimidin-4-yl)-4H-1′-azaspiro[oxazole-5,3′-bicyclo[2.2.2]octan]-2-amine] registered a concentration giving a half-maximal response (EC50) of less than 100 nM.
Still for that read-out and setting: as for `Fc1ccc(-c2cc(NC3=NC[C@@]4(CN5CCC4CC5)O3)ncn2)cn1` [Example 331, (R)—N-(6-(6-Fluoropyridin-3-yl)pyrimidin-4-yl)-4H-1′-azaspiro[oxazole-5,3′-bicyclo[2.2.2]octan]-2-amine], the figure is less than 100 nM; as for `Fc1cncc(-c2cc(NC3=NC[C@@]4(CN5CCC4CC5)O3)ncn2)c1` [Example 332, (R)—N-(6-(5-Fluoropyridin-3-yl)pyrimidin-4-yl)-4H-1′-azaspiro[oxazole-5,3′-bicyclo[2.2.2]octan]-2-amine], less than 100 nM.
`Cn1nccc1-c1cc(NC2=NC[C@@]3(CN4CCC3CC4)O2)ncn1` [Example 333, (R)—N-(6-(1-Methyl-1H-pyrazol-5-yl)pyrimidin-4-yl)-4H-1′-azaspiro[oxazole-5,3′-bicyclo[2.2.2]octan]-2-amine] showed a concentration for a half-maximal effect (EC50) of less than 100 nM.
Compound `c1cnc(-c2cc(NC3=NC[C@@]4(CN5CCC4CC5)O3)ncn2)cn1` [Example 334, (R)—N-(6-(Pyrazin-2-yl)pyrimidin-4-yl)-4H-1′-azaspiro[oxazole-5,3′-bicyclo[2.2.2]octan]-2-amine] showed an EC50 of less than 100 nM.
`Cc1cc2cnc(NC3=NC[C@@]4(CN5CCC4CC5)O3)cc2cc1C` [Example 335, (2R)—N-(6,7-Dimethyl-3-isoquinolinyl)-4′H-spiro[4-azabicyclo[2.2.2]octane-2,5′-[1,3]oxazol]-2′-amine]: the EC50 was 100 to 1000 nM.
In turn, `Cc1ccc2nc(NC3=NC[C@@]4(CN5CCC4CC5)O3)oc2c1` [Example 336, (2R)—N-(6-Methyl-1,3-benzoxazol-2-yl)-4′H-spiro[4-azabicyclo[2.2.2]octane-2,5′-[1,3]oxazol]-2′-amine] registered an EC50 of less than 100 nM.
Consider `COc1ccc2nc(NC3=NC[C@@]4(CN5CCC4CC5)O3)oc2c1` [Example 337, (2R)—N-(6-Methoxy-1,3-benzoxazol-2-yl)-4′H-spiro[4-azabicyclo[2.2.2]octane-2,5′-[1,3]oxazol]-2′-amine], for which the 50% effective concentration (EC50) was in the range of 100 to 1000 nM.
In the case of `Clc1cccc2cnc(NC3=NC[C@@]4(CN5CCC4CC5)O3)cc12` [Example 338A, (R)—N-(5-chloroisoquinolin-3-yl)-4H-1′-azaspiro[oxazole-5,3′-bicyclo[2.2.2]octan]-2-amine], the EC50 is less than 100 nM.
In the case of `Clc1ccc2cc(NC3=NC[C@@]4(CN5CCC4CC5)O3)ncc2c1` [Example 338B, (R)—N-(7-chloroisoquinolin-3-yl)-4H-1′-azaspiro[oxazole-5,3′-bicyclo[2.2.2]octan]-2-amine], the EC50 is less than 100 nM.
With `Clc1cnc2nc(NC3=NC[C@@]4(CN5CCC4CC5)O3)sc2c1` [Example 339, (R)—N-(6-Chlorothiazolo[4,5-b]pyridin-2-yl)-4H-1′-azaspiro[oxazole-5,3′-bicyclo[2.2.2]octan]-2-amine], the concentration for a half-maximal effect (EC50) was less than 100 nM.
On to `Fc1ccc2nc(NC3=NC[C@@]4(CN5CCC4CC5)O3)sc2n1` [Example 340, (R)—N-(5-Fluorothiazolo[5,4-b]pyridin-2-yl)-4H-1′-azaspiro[oxazole-5,3′-bicyclo[2.2.2]octan]-2-amine], for which the EC50 was less than 100 nM.
`Cc1cnc2nc(NC3=NC[C@@]4(CN5CCC4CC5)O3)sc2n1` [Example 341, (R)—N-(6-methylthiazolo[5,4-b]pyrazin-2-yl)-4H-1′-azaspiro[oxazole-5,3′-bicyclo[2.2.2]octan]-2-amine]: the EC50 was less than 100 nM.
On to `COc1cc2cnc(NC3=NC[C@@]4(CN5CCC4CC5)O3)cc2cc1OC` [Example 342, (R)—N-(6,7-dimethoxyisoquinolin-3-yl)-4H-1′-azaspiro[oxazole-5,3′-bicyclo[2.2.2]octan]-2-amine], for which the EC50 was in the range of 1000 to 100000 nM.
Compound `c1nc(NC2=NC[C@@]3(CN4CCC3CC4)O2)cc2c1CCCC2` [Example 343, (R)—N-(5,6,7,8-Tetrahydroisoquinolin-3-yl)-4H-1′-azaspiro[oxazole-5,3′-bicyclo[2.2.2]octan]-2-amine] registered an EC50 of less than 100 nM.
The compound `COc1cc2cnc(NC3=NC[C@@]4(CN5CCC4CC5)O3)cc2cc1Cl` [Example 344, (R)—N-(6-Chloro-7-methoxyisoquinolin-3-yl)-4H-1′-azaspiro[oxazole-5,3′-bicyclo[2.2.2]octan]-2-amine] had an EC50 of less than 100 nM.
`Fc1cccc2cnc(NC3=NC[C@@]4(CN5CCC4CC5)O3)cc12` [Example 345, (R)—N-(5-Fluoroisoquinolin-3-yl)-4H-1′-azaspiro[oxazole-5,3′-bicyclo[2.2.2]octan]-2-amine] showed an EC50 of less than 100 nM.
The same measure, in the same setting: as for `Fc1ccc(Br)c2cnc(NC3=NC[C@@]4(CN5CCC4CC5)O3)cc12` [Example 346, (R)—N-(8-Bromo-5-fluoroisoquinolin-3-yl)-4H-1′-azaspiro[oxazole-5,3′-bicyclo[2.2.2]octan]-2-amine], the figure is 100 to 1000 nM.
In the case of `c1cn(-c2cc(NC3=NC[C@@]4(CN5CCC4CC5)O3)ncn2)cn1` [Example 347, (R)—N-(6-(1H-imidazol-1-yl)pyrimidin-4-yl)-4H-1′-azaspiro[oxazole-5,3′-bicyclo[2.2.2]octan]-2-amine], the EC50 was less than 100 nM.
`Cc1cn(-c2cc(NC3=NC[C@@]4(CN5CCC4CC5)O3)ncn2)cn1` [Example 348, (R)—N-(6-(4-Methyl-1H-imidazol-1-yl)pyrimidin-4-yl)-4H-1′-azaspiro[oxazole-5,3′-bicyclo[2.2.2]octan]-2-amine] registered an EC50 of less than 100 nM.

The values are drawn from US8309577B2, “Quinuclidine compounds as α-7 nicotinic acetylcholine receptor ligands” (Bristol-Myers Squibb Company, priority 2008, dated 2012).
